These results are taken from patent publication US6503532B1, “Pharmaceutical composition containing tetrahydrocannabinol and a transdermal/transcutaneous delivery method thereof” (Murty Pharmaceuticals, Inc., priority 2001, dated 2003).

For series [1] the following is noted: 750 courses of oral therapy; cited from earlier work.
For series [2] the following is noted: in vivo; cited from earlier work.
The nature of series [3]: Solubility of THC in ethanol:water with or without permeation enhancer (HPLC). The conditions noted are these: ethanol:water 70:30 v/v, aqueous with cosolvent or surfactant or cyclodextrin, thermodynamic from solid.

A word on the solubility: it is the dissolved amount per volume that the medium holds.

As for `CCCCCc1cc(O)c2c(c1)OC(C)(C)[C@@H]1CCC(C)=C[C@@H]21` [THC, tetrahydrocannabinol], the “poor or only partial response to THC, share of courses” value in series [1] is “approximately 65%”. The “Plasma levels for therapeutic effects” value in series [2] was around 10 nanograms/ml. In addition, the solubility at 24 h in series [3] is 20.2 mg/mL.
